Measurements as given in patent publication US20240124460A1, “METHODS AND COMPOSITIONS FOR TARGETED PROTEIN DEGRADATION” (Ranok Therapeutics (Hangzhou) Co. Ltd., priority 2020, published 2024).

What was measured:
HSP90α protein = molecular target: T1, HSP90α protein (Homo sapiens, UniProt P07900); assay: HSP90α-binding FP (BODIPY) assay; conditions: FP competition with BODIPY-labeled RNK04010
T1 construct: purchased BPS Bioscience #50298
Description: Binding of test compounds to HSP90α protein was measured by fluorescent polarization (FP) using the HSP90α (N-terminal) Assay Kit (BPS Bioscience, #50298), following the manufacturer's instructions, except as noted. Fluorescently labeled HSP90-binding compounds, either the provided FITC-geldanamycin (5 nM final concentration) or RNK04010, a triazolone-based HSP90 binding small molecule labeled with BODIPY through a piperazine-phenyl linker (5 nM final concentration) were employed. A 2.5-fold serial dilution of each test compound ranging from 20 μM to 5.2 nM was assayed for binding to HSP90α. After the final step of adding HSP90α protein to each assay well, plates were mixed by brief shaking, incubated at 25° C. for 120 min for FITC-geldanamycin or 300 min for RNK04010, and fluorescence was measured using a PerkinElmer EnVision Plate Reader.

[1] = test system: MV-4-11 human acute myeloid leukemia; assay: MV-4-11 CCK-8 proliferation assay; type: cell-based; conditions: Homo sapiens, MV4-11; MV-4-11 cells, 72 hr
Method in brief: (§1)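 3-fold dilution series, 20 μM–1.02 nM; ATCC culture conditions; CCK-8 absorbance read-out; % inhibition = 100 − (D−B)/(S−B)×100, S = DMSO cells, B = medium + DMSO, no cells.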

[2] = test system: U-87 MG human glioblastoma; assay: U87 MG CCK-8 proliferation assay; type: cell-based; conditions: Homo sapiens, U-87 MG, 72 h, U-87 MG cells, read-out: U87MG CCK-8
Method in brief: as §1

| SMILES | IC50 (HSP90α protein) | EC50 [1] | EC50 [2] |
| --- | --- | --- | --- |
| CCOc1cc(N2CCC(C(=O)N3CCN(Cc4ccc(-n5c(O)nnc5-c5cc(C(C)C)c(O)cc5O)cc4)[C@@H](C)C3)CC2)ccc1Nc1ncc2c(n1)N(C)c1ccccc1C(=O)N2C [Compound 055, (S)-2-((4-(4-(4-(4-(3-(2,4-dihydroxy-5-isopropylphenyl)-5-hydroxy-4H-1,2,4-triazol-4-yl)benzyl)-3-methylpiperazine-1-carbonyl)piperidin-1-yl)-2-ethoxyphenyl)amino)-5,11-dimethyl-5,11-dihydro-6H-benzo[e]pyrimido[5,4-b][1,4]diazepin-6-one] | 100 to 1000 nM | < 100 nM | 100 to 1000 nM |
| CCOc1cc(N2CCC(C(=O)N3CCC(N4CCN(Cc5ccc(-n6c(O)nnc6-c6cc(C(C)C)c(O)cc6O)cc5)CC4)CC3)CC2)ccc1Nc1ncc2c(n1)N(S(C)(=O)=O)c1ccccc1C(=O)N2C [Compound 064, 2-((4-(4-(4-(4-(4-(3-(2,4-dihydroxy-5-isopropylphenyl)-5-hydroxy-4H-1,2,4-triazol-4-yl)benzyl)piperazin-1-yl)piperidine-1-carbonyl)piperidin-1-yl)-2-ethoxyphenyl)amino)-5-methyl-11-(methylsulfonyl)-5,11-dihydro-6H-benzo[e]pyrimido[5,4-b][1,4]diazepin-6-one] | < 100 nM | < 100 nM | < 100 nM |
| CCOc1cc(N2CCC(C(=O)NCc3ccc(-n4c(O)nnc4-c4cc(C)c(O)cc4O)cc3)CC2)ccc1Nc1ncc2c(n1)N(S(C)(=O)=O)c1ccccc1C(=O)N2C [Compound 073, N-(4-(3-(2,4-dihydroxy-5-methylphenyl)-5-hydroxy-4H-1,2,4-triazol-4-yl)benzyl)-1-(3-ethoxy-4-((5-methyl-11-(methylsulfonyl)-6-oxo-6,11-dihydro-5H-benzo[e]pyrimido[5,4-b][1,4]diazepin-2-yl)amino)phenyl)piperidine-4-carboxamide] | > 1000 nM | > 1000 nM | > 1000 nM |
| CCOc1cc(N2CCC(C(=O)NCc3ccc(-n4c(O)nnc4-c4cc(CC)c(O)cc4O)cc3)CC2)ccc1Nc1ncc2c(n1)N(S(C)(=O)=O)c1ccccc1C(=O)N2C [Compound 071, 1-(3-ethoxy-4-((5-methyl-11-(methylsulfonyl)-6-oxo-6,11-dihydro-5H-benzo[e]pyrimido[5,4-b][1,4]diazepin-2-yl)amino)phenyl)-N-(4-(3-(5-ethyl-2,4-dihydroxyphenyl)-5-hydroxy-4H-1,2,4-triazol-4-yl)benzyl)piperidine-4-carboxamide] | 100 to 1000 nM | 100 to 1000 nM | > 1000 nM |
| CCOc1cc(N2CCC(C(=O)N3CCC(CN4CCN(Cc5ccc(-n6c(C(N)=O)nnc6-c6cc(CC)c(O)cc6O)cc5)CC4)CC3)CC2)ccc1Nc1ncc2c(n1)N(C)c1ccccc1C(=O)N2C [Compound 034, 4-(4-((4-((1-(1-(4-((5,11-dimethyl-6-oxo-6,11-dihydro-5H-benzo[e]pyrimido[5,4-b][1,4]diazepin-2-yl)amino)-3-ethoxyphenyl)piperidine-4-carbonyl)piperidin-4-yl)methyl)piperazin-1-yl)methyl)phenyl)-5-(5-ethyl-2,4-dihydroxyphenyl)-4H-1,2,4-triazole-3-carboxamide] | 100 to 1000 nM | < 100 nM | 100 to 1000 nM |
| CCOc1cc(N2CCC(C(=O)N3CCN(Cc4ccc(-n5c(O)nnc5-c5cc(C(C)C)c(O)cc5O)cc4C(F)(F)F)CC3)CC2)ccc1Nc1ncc2c(n1)N(C)c1ccccc1C(=O)N2C [Compound 046, 2-((4-(4-(4-(4-(3-(2,4-dihydroxy-5-isopropylphenyl)-5-hydroxy-4H-1,2,4-triazol-4-yl)-2-(trifluoromethyl)benzyl)piperazine-1-carbonyl)piperidin-1-yl)-2-ethoxyphenyl)amino)-5,11-dimethyl-5,11-dihydro-6H-benzo[e]pyrimido[5,4-b][1,4]diazepin-6-one] | 100 to 1000 nM | < 100 nM | 100 to 1000 nM |
| CCOc1cc(N2CCC(C(=O)N3CCC(N4CCN(Cc5ccc(-n6c(O)nnc6-c6cc(C(C)C)c(O)cc6O)cc5C(F)(F)F)CC4)CC3)CC2)ccc1Nc1ncc2c(n1)N(S(C)(=O)=O)c1ccccc1C(=O)N2C [Compound 069, 2-((4-(4-(4-(4-(4-(3-(2,4-dihydroxy-5-isopropylphenyl)-5-hydroxy-4H-1,2,4-triazol-4-yl)-2-(trifluoromethyl)benzyl)piperazin-1-yl)piperidine-1-carbonyl)piperidin-1-yl)-2-ethoxyphenyl)amino)-5-methyl-11-(methylsulfonyl)-5,11-dihydro-6H-benzo[e]pyrimido[5,4-b][1,4]diazepin-6-one] | 100 to 1000 nM | < 100 nM | 100 to 1000 nM |
| CCOc1cc(N2CCC(C(=O)N3CCC(CN4CCN(CCCOc5ccc(Nc6ccc(-n7nc(C(F)(F)F)c8c7CC(C)(C)CC8=O)cc6C(N)=O)cc5)CC4)CC3)CC2)ccc1Nc1ncc2c(n1)N(S(C)(=O)=O)c1ccccc1C(=O)N2C [Compound 068, 5-(6,6-dimethyl-4-oxo-3-(trifluoromethyl)-4,5,6,7-tetrahydro-1H-indazol-1-yl)-2-((4-(3-(4-((1-(1-(3-ethoxy-4-((5-methyl-11-(methylsulfonyl)-6-oxo-6,11-dihydro-5H-benzo[e]pyrimido[5,4-b][1,4]diazepin-2-yl)amino)phenyl)piperidine-4-carbonyl)piperidin-4-yl)methyl)piperazin-1-yl)propoxy)phenyl)amino)benzamide] | > 1000 nM | 100 to 1000 nM | > 1000 nM |

The remaining lines, values ahead:

| IC50 (HSP90α protein) | EC50 [1] | EC50 [2] | SMILES |
| --- | --- | --- | --- |
| > 1000 nM | 100 to 1000 nM | > 1000 nM | CCOc1cc(N2CCC(C(=O)N3CCC(CN4CCN(C(=O)O[C@H]5CC[C@H](Nc6cc(-n7nc(C(F)(F)F)c8c7CC(C)(C)CC8=O)ccc6C(N)=O)CC5)CC4)CC3)CC2)ccc1Nc1ncc2c(n1)N(S(C)(=O)=O)c1ccccc1C(=O)N2C [Compound 117, (1R,4R)-4-((2-carbamoyl-5-(6,6-dimethyl-4-oxo-3-(trifluoromethyl)-4,5,6,7-tetrahydro-1H-indazol-1-yl)phenyl)amino)cyclohexyl 4-((1-(1-(3-ethoxy-4-((5-methyl-11-(methylsulfonyl)-6-oxo-6,11-dihydro-5H-benzo[e]pyrimido[5,4-b][1,4]diazepin-2-yl)amino)phenyl)piperidine-4-carbonyl)piperidin-4-yl)methyl)piperazine-1-carboxylate] |
| 100 to 1000 nM | < 100 nM | 100 to 1000 nM | CCCc1cc(-c2nnc(O)n2-c2ccc(CN3CCN(C(=O)C4CCN(c5ccc(Nc6ncc7c(n6)N(S(C)(=O)=O)c6ccccc6C(=O)N7C)c(OCC)c5)CC4)CC3)cc2)c(O)cc1O [Compound 087, 2-((4-(4-(4-(4-(3-(2,4-dihydroxy-5-propylphenyl)-5-hydroxy-4H-1,2,4-triazol-4-yl)benzyl)piperazine-1-carbonyl)piperidin-1-yl)-2-ethoxyphenyl)amino)-5-methyl-11-(methylsulfonyl)-5,11-dihydro-6H-benzo[e]pyrimido[5,4-b][1,4]diazepin-6-one] |
| > 1000 nM | 100 to 1000 nM | > 1000 nM | CCCc1cc(-c2nnc(O)n2-c2ccc(CNC(=O)C3CCN(c4ccc(Nc5ncc6c(n5)N(S(C)(=O)=O)c5ccccc5C(=O)N6C)c(OCC)c4)CC3)cc2)c(O)cc1O [Compound 074, N-(4-(3-(2,4-dihydroxy-5-propylphenyl)-5-hydroxy-4H-1,2,4-triazol-4-yl)benzyl)-1-(3-ethoxy-4-((5-methyl-11-(methylsulfonyl)-6-oxo-6,11-dihydro-5H-benzo[e]pyrimido[5,4-b][1,4]diazepin-2-yl)amino)phenyl)piperidine-4-carboxamide] |
